{
  "source": "patent US8846665B2",
  "about": "“6,7-dihydro-[1,3,4]thiadiazolo-[3,2-a][1,3]diazepin derivative and pharmaceutical composition containing the same as neuromuscular blocker or skeletal muscle relaxant, and method for the preparation” (King Saud University, priority 2011, dated 2014)",
  "key": {"[1]": {"test_system": "rat tibialis electrically-induced twitches", "assay": "Neuromuscular blocking activity in rats (sciatic nerve-tibialis twitch)", "format": "in vivo", "conditions": "for Time for 100% Reversal / Time of onset of Reversal: after physostigmine; for ED50 (mmole/kg i.p.): dose producing 50% reduction of the rat tibialis twitch; for Duration of the Block / Time of 50% Block / Time of 90% Block / Time of onset of Block: rat tibialis twitches; for Effect of Physostigmine: reversal of block by physostigmine, single bolus"}, "4-day old chicks": {"test_system": "4-day old chicks", "assay": "Neuromuscular blocking activity in chicks (head drop, type of paralysis)", "format": "in vivo, chick", "description": "Adult male Wistar rats (250 g) and 4-day old chicks (50 g) were used to conduct the neuromuscular blocking activity evaluation. They were housed in cages and kept at a temperature of 20±2° C. and a relative humidity of 55±5% with a light-dark cycle of 12 h. The animals were provided with Purina rodent's chow pellets supplied by Grain silos and Flour Mills Organization, Riyadh, Saudi Arabia and had both food and water ad libitum. The chicks were bought from the local market in Riyadh. Male Wistar rats (250 g) were randomly divided into various groups (N=4-8 animals). The animals were prepared following modifications of the reported method (Henning, R. Br. J. Pharmacol. 1993, 108, 717-720; Thesleff, S. et al, J. Pharmacol. Expt. Ther. 1954, 111, 99-118). Test drugs, standards or vehicles were administered intraperitoneal dissolved in dimethyl sulfoxide, or water as appropriate in various doses 1-100 mg/kg. In all experiments a control group was included and received intraperitoneal injections of the test compounds' vehicle. […] Also the dose that produced 90% of twitches depression was calculated. The response of the muscle to titanic stimulation was tested before administration of any drug and following 90% inhibition of the twitches.\nIntraperitoneal administration of compounds of the formula 1 in single doses ranged from of 0.15-0.3 mmoles/kg, induced flaccid paralysis of the chicks within 1-15 minutes. The paralysis started with head movement and drop; then complete flaccid paralysis occurred. The onset of head drops were ranged from 15 sec-11 minutes whereas the flaccid paralysis ranged from 1-15 minutes following administration. Atracurium and Succinylcholine were used as positive controls. The mechanism of action of compounds of the formula 1 was similar but with more rapid onset of action than that of Atracurium; and almost similar to that of Succinylcholine. Representative example is shown in Example 4.\nThe effects of GS-53 and the standard drugs Succinylcholine and Atracurium were administered to 4-day old chicks to confirm the mode of the neuromuscular blockade (Buttle, G. et al, J. Pharm. Pharmacol. 1949, 1, 991-992; Thesleff, S. et al, J. Pharmacol. Expt. Ther. 1954, 111, 99-118; ELTahir, K. Guide to Drug Discovery, 2008, Riyadh, KSA). […] Intraperitoneal administration of GS-53 in single dose of 0.15 mmoles/kg, induced flaccid paralysis of the chicks within one minute. The paralysis started with head movement and drop; then complete flaccid paralysis occurred. The onset of head drop was 15 sec whereas the flaccid paralysis was one minute following administration. Atracurium and Succinylcholine were used as positive controls. The mechanism of action GS-53 seemed to be similar but with more rapid onset of action than that of Atracurium; and almost similar to that of Succinylcholine (Table 2)."}, "[2]": {"assay": "Determination of the lethal dose (LD50)", "conditions": "male, mouse, in vivo, ip, male mice, intraperitoneal", "description": "The LD50 values of compounds of formula 1 were performed. Compounds were given intraperitoneally in doses ranging from 0.1-5 mmole/kg. […] All behavioral changes and death during the observation periods were recorded. The percentage of death at each dose level was then calculated, and the LD50 values were obtained (Ghosh, M., Fundamentals of Experimental Pharmacology, Scientific Book Agency, Calcutta. 1984, pp 153-158, 187-189). The Therapeutic Index of each compound was calculated following the determination of the effective neuromuscular blocking dose. Representative example is shown in Example 5.\nMale mice were divided into various groups and GS-53 was administered in various doses ranging from 0.1-5 mmole/kg, intraperitoneal. […] All behavioral changes and death during the observation periods were recorded."}, "[3]": {"conditions": "literature classification, cited from earlier work; for Onset of action: following bolus i.v. administration"}, "[4]": {"conditions": "single dose of 0.15 mmoles/kg i.p."}},
  "note": "Where “and” joins values, the source holds several entries; their conditions need not be identical. Equal entries are not always repeated. Where two headings read alike, the source gives them in different places.",
  "data": [
    {"smiles": "COc1ccc(CC2c3cc(OC)c(OC)cc3CC[N+]2(C)CCC(=O)OCCCCCOC(=O)CC[N+]2(C)CCc3cc(OC)c(OC)cc3C2Cc2ccc(OC)c(OC)c2)cc1OC", "note": "(centres unmarked) [Atracurium]", "values": [
      {"measurement": "Time for 100% Reversal", "setting": "[1]", "result": "3 ± 0.4", "unit": "min"},
      {"measurement": "Time of onset of Reversal", "setting": "[1]", "result": 2.0, "unit": "min"},
      {"measurement": "ED50 (mmole/kg i.p.)", "setting": "[1]; i.p.", "result": 0.016, "unit": "mmol/kg"},
      {"measurement": "Duration of the Block", "setting": "[1]; i.p.", "result": "30 ± 6", "unit": "min"},
      {"measurement": "Time of 50% Block", "setting": "[1]; i.p.", "result": "8 ± 0.2", "unit": "min"},
      {"measurement": "Time of 90% Block", "setting": "[1]; i.p.", "result": "12 ± 1.3", "unit": "min"},
      {"measurement": "Time of onset of Block", "setting": "[1]; i.p.", "result": "5 ± 0.8", "unit": "min"},
      {"measurement": "Effect of Physostigmine", "setting": "[1]", "result": 100, "unit": "% Reversal"},
      {"measurement": "ED50 (mmole/kg i.p.)", "setting": "4-day old chicks; i.p.", "result": 0.016, "unit": "mmol/kg"},
      {"measurement": "Mechanism of action", "setting": "4-day old chicks; i.p.", "result": "Competitive"},
      {"measurement": "Onset of head drop", "setting": "4-day old chicks; i.p.", "result": "5 ± 0.8", "unit": "min"},
      {"measurement": "Onset of muscle relaxation", "setting": "4-day old chicks; i.p.", "result": "10 ± 0.8", "unit": "min"},
      {"measurement": "Type of neuromuscular paralysis", "setting": "4-day old chicks; i.p.", "result": "Flaccid"}
    ]},
    {"smiles": "O=C1CCCN2N=C(c3ccc(Br)cc3)SC2=N1", "note": "[GS-53, (E)-2-(4-bromophenyl)-6,7-dihydro-[1,3,4]thiadiazolo[3,2-a][1,3]diazepin-8(5H)-one]", "values": [
      {"measurement": "LD50 at 72 h", "setting": "[2]; observation 72 hours, read-out: LD50", "result": 195, "unit": "mg/kg"},
      {"measurement": "LD50 at 72 h", "setting": "[2]; read-out: LD50 95% confidence limits", "result": "185 to 205", "unit": "mg/kg"},
      {"measurement": "Time for 100% Reversal", "setting": "[1]", "result": "6 ± 1.2", "unit": "min"},
      {"measurement": "Time of onset of Reversal", "setting": "[1]", "result": 1.0, "unit": "min"},
      {"measurement": "ED50 (mmole/kg i.p.)", "setting": "[1]; i.p.", "result": 0.15, "unit": "mmol/kg"},
      {"measurement": "ED50 (mmole/kg i.p.), value in brackets in mg", "setting": "[1]; i.p., rat tibialis twitch", "result": 48.6, "unit": "mg"},
      {"measurement": "Duration of the Block", "setting": "[1]; i.p.", "result": "70 ± 12", "unit": "min"},
      {"measurement": "Time of 50% Block", "setting": "[1]; i.p.", "result": "7 ± 0.6", "unit": "min"},
      {"measurement": "Time of 90% Block", "setting": "[1]; i.p.", "result": "10 ± 3", "unit": "min"},
      {"measurement": "Time of onset of Block", "setting": "[1]; i.p.", "result": "3 ± 0.9", "unit": "min"},
      {"measurement": "Duration of action relative to Atracurium", "setting": "[1]; rat, ratio of durations of block", "result": 2.3, "unit": "times"},
      {"measurement": "Effect of Physostigmine", "setting": "[1]", "result": "completely reversed and 100% Reversal"},
      {"measurement": "ED50 (mmole/kg i.p.)", "setting": "4-day old chicks; i.p.", "result": 0.15, "unit": "mmol/kg"},
      {"measurement": "ED50 (mmole/kg i.p.), value in brackets in mg", "setting": "4-day old chicks; i.p.", "result": 48.6, "unit": "mg/kg"},
      {"measurement": "Mechanism of action", "setting": "4-day old chicks; i.p.", "result": "Competitive"},
      {"measurement": "Onset of head drop", "setting": "4-day old chicks; i.p.", "result": "0.25 ± 0.1", "unit": "min"},
      {"measurement": "Onset of muscle relaxation", "setting": "4-day old chicks; i.p.", "result": "1 ± 0.08", "unit": "min"},
      {"measurement": "Type of neuromuscular paralysis", "setting": "4-day old chicks; i.p.", "result": "Flaccid"},
      {"measurement": "Onset of flaccid paralysis", "setting": "4-day old chicks; [4]", "result": "one"},
      {"measurement": "Onset of head drop", "setting": "4-day old chicks; [4]", "result": 0.25, "unit": "min"}
    ]},
    {"smiles": "COc1cc2c(cc1OC)[C@H](c1cc(OC)c(OC)c(OC)c1)[N@@+](C)(CCCOC(=O)/C=C(\\Cl)C(=O)OCCC[N@+]1(C)CCc3cc(OC)c(OC)cc3[C@H]1Cc1cc(OC)c(OC)c(OC)c1)CC2", "note": "[Gantacurium]", "values": [
      {"measurement": "Onset of action", "setting": "[3]", "result": "within a minute"},
      {"measurement": "Duration", "setting": "[3]", "result": 5, "unit": "min"}
    ]},
    {"smiles": "C[N+](C)(C)CCOC(=O)CCC(=O)OCC[N+](C)(C)C", "note": "[Succinylcholine]", "values": [
      {"measurement": "ED50 (mmole/kg i.p.)", "setting": "[1]; i.p.", "result": 0.03, "unit": "mmol/kg"},
      {"measurement": "Duration of the Block", "setting": "[1]; i.p.", "result": "20 ± 1.8", "unit": "min"},
      {"measurement": "Time of 50% Block", "setting": "[1]; i.p.", "result": "3 ± 0.1", "unit": "min"},
      {"measurement": "Time of 90% Block", "setting": "[1]; i.p.", "result": "5 ± 0.2", "unit": "min"},
      {"measurement": "Time of onset of Block", "setting": "[1]; i.p.", "result": "2 ± 0.1", "unit": "min"},
      {"measurement": "Effect of Physostigmine", "setting": "[1]", "result": "No Reversal"},
      {"measurement": "Onset of action", "setting": "[3]", "result": "within a minute"},
      {"measurement": "Duration", "setting": "[3]", "result": 5, "unit": "min"},
      {"measurement": "ED50 (mmole/kg i.p.)", "setting": "4-day old chicks; i.p.", "result": 0.03, "unit": "mmol/kg"},
      {"measurement": "Mechanism of action", "setting": "4-day old chicks; i.p.", "result": "Depolarizing"},
      {"measurement": "Onset of muscle relaxation", "setting": "4-day old chicks; i.p.", "result": "0.5 ± 0.02", "unit": "min"},
      {"measurement": "Type of neuromuscular paralysis", "setting": "4-day old chicks; i.p.", "result": "Spastic"}
    ]}
  ]
}
